Assay results: US8883841B2, “Oncogenic ras-specific cytotoxic compound and methods of use thereof” (The Board of Regents of the University of Texas System, priority 2005, dated 2014)

Legend:
Sw620 = assay: Cell viability, Sw620 colon cancer cells; format: cell-based, human; conditions: Sw620, Colon
SKOV3 = assay: Cell viability, SKOV3 ovary cancer cells; format: cell-based
RXF 393 = assay: NCI in-vitro testing, RXF 393 (Renal Cancer)
SNB-75 = assay: NCI in-vitro testing, SNB-75 (CNS Cancer)
M14 = assay: NCI in-vitro testing, M14 (Melanoma)
DU-145 = assay: NCI in-vitro testing, DU-145 (Prostate Cancer)
MALME-3M = assay: NCI in-vitro testing, MALME-3M (Melanoma)
T-47D = assay: NCI in-vitro testing, T-47D (Breast Cancer)
SF-268 = assay: NCI in-vitro testing, SF-268 (CNS Cancer)
COLO 205 = assay: NCI in-vitro testing, COLO 205 (Colon Cancer)
UACC-62 = assay: NCI in-vitro testing, UACC-62 (Melanoma)
HL-60(TB) = assay: NCI in-vitro testing, HL-60(TB) (Leukemia)
BT-549 = assay: NCI in-vitro testing, BT-549 (Breast Cancer)
MOLT-4 = assay: NCI in-vitro testing, MOLT-4 (Leukemia)
SF-539 = assay: NCI in-vitro testing, SF-539 (CNS Cancer)
OVCAR-3 = assay: NCI in-vitro testing, OVCAR-3 (Ovarian Cancer)

O=Cc1cn(Cc2ccc(Cl)cc2)c2ccccc12 [Oncrasin K001, 1H-Indole-3-carboxaldehyde, 1-[(4-chlorophenyl)methyl]-(9CI)]
IC50 (−LogM) (Sw620): 5.4 −LogM
IC50 (−LogM) (SKOV3): 5.8 −LogM

O=Cc1cn(Cc2cccc(Cl)c2)c2ccccc12 [Oncrasin K027, 1-(3-chlorobenzyl)-1H-indole-3-carbaldehyde]
GI50 (RXF 393; Homo sapiens, RXF 393): < 0.01 µM
CC50 (RXF 393; Homo sapiens, RXF 393, read-out: LC50): 23.2 µM
TGI (RXF 393; RXF 393): 2.44E−7 Molar
Percent Growth (RXF 393; RXF 393, Log10 Concentration −4.0 Molar): −85%
Percent Growth (RXF 393; RXF 393, Log10 Concentration −5.0 Molar): −30%
Percent Growth (RXF 393; RXF 393, Log10 Concentration −6.0 Molar): −12%
Percent Growth (RXF 393; RXF 393, Log10 Concentration −7.0 Molar): 7%
Percent Growth (RXF 393; RXF 393, Log10 Concentration −8.0 Molar): 31%
GI50 (SNB-75; Homo sapiens, SNB-75): 7.64 µM
CC50 (SNB-75; Homo sapiens, SNB-75, read-out: LC50): 62.8 µM
TGI (SNB-75; SNB-75): 2.31E−5 Molar
Percent Growth (SNB-75; SNB-75, Log10 Concentration −4.0 Molar): −73%
Percent Growth (SNB-75; SNB-75, Log10 Concentration −5.0 Molar): 42%
Percent Growth (SNB-75; SNB-75, Log10 Concentration −6.0 Molar): 112%
Percent Growth (SNB-75; SNB-75, Log10 Concentration −7.0 Molar): 119%
Percent Growth (SNB-75; SNB-75, Log10 Concentration −8.0 Molar): 118%
GI50 (M14; Homo sapiens, M14): 5.16 µM
CC50 (M14; Homo sapiens, M14, read-out: LC50): 55.9 µM
TGI (M14; M14): 2.03E−5 Molar
Percent Growth (M14; M14, Log10 Concentration −4.0 Molar): −79%
Percent Growth (M14; M14, Log10 Concentration −5.0 Molar): 35%
Percent Growth (M14; M14, Log10 Concentration −6.0 Molar): 87%
Percent Growth (M14; M14, Log10 Concentration −7.0 Molar): 94%
Percent Growth (M14; M14, Log10 Concentration −8.0 Molar): 95%
TGI (DU-145; DU-145): 2.78E−5 Molar
Percent Growth (DU-145; DU-145, Log10 Concentration −4.0 Molar): −53%
Percent Growth (DU-145; DU-145, Log10 Concentration −5.0 Molar): 42%
Percent Growth (DU-145; DU-145, Log10 Concentration −6.0 Molar): 98%
Percent Growth (DU-145; DU-145, Log10 Concentration −7.0 Molar): 108%
Percent Growth (DU-145; DU-145, Log10 Concentration −8.0 Molar): 108%
GI50 (DU-145; Homo sapiens, DU-145): 7.25 µM
CC50 (DU-145; Homo sapiens, DU-145, read-out: LC50): 93.3 µM
GI50 (MALME-3M; Homo sapiens, Malme-3M): 5.17 µM
CC50 (MALME-3M; Homo sapiens, Malme-3M, read-out: LC50): 82 µM
TGI (MALME-3M; MALME-3M): 2.37E−5 Molar
Percent Growth (MALME-3M; MALME-3M, Log10 Concentration −4.0 Molar): −58%
Percent Growth (MALME-3M; MALME-3M, Log10 Concentration −5.0 Molar): 35%
Percent Growth (MALME-3M; MALME-3M, Log10 Concentration −6.0 Molar): 88%
Percent Growth (MALME-3M; MALME-3M, Log10 Concentration −7.0 Molar): 114%
Percent Growth (MALME-3M; MALME-3M, Log10 Concentration −8.0 Molar): 105%
GI50 (T-47D; Homo sapiens, T47D): 0.0267 µM
CC50 (T-47D; Homo sapiens, T47D, read-out: LC50): > 100 µM
TGI (T-47D; T-47D): 4.23E−7 Molar
Percent Growth (T-47D; T-47D, Log10 Concentration −4.0 Molar): −14%
Percent Growth (T-47D; T-47D, Log10 Concentration −5.0 Molar): −16%
Percent Growth (T-47D; T-47D, Log10 Concentration −6.0 Molar): −12%
Percent Growth (T-47D; T-47D, Log10 Concentration −7.0 Molar): 20%
Percent Growth (T-47D; T-47D, Log10 Concentration −8.0 Molar): 73%
GI50 (SF-268; Homo sapiens, SF-268): 1.24 µM
CC50 (SF-268; Homo sapiens, SF-268, read-out: LC50): > 100 µM
TGI (SF-268; SF-268): 4.58E−5 Molar
Percent Growth (SF-268; SF-268, Log10 Concentration −4.0 Molar): −30%
Percent Growth (SF-268; SF-268, Log10 Concentration −5.0 Molar): 58%
Percent Growth (SF-268; SF-268, Log10 Concentration −6.0 Molar): 94%
Percent Growth (SF-268; SF-268, Log10 Concentration −7.0 Molar): 93%
Percent Growth (SF-268; SF-268, Log10 Concentration −8.0 Molar): 106%
TGI (COLO 205; COLO 205): 1.58E−5 Molar
Percent Growth (COLO 205; COLO 205, Log10 Concentration −4.0 Molar): −72%
Percent Growth (COLO 205; COLO 205, Log10 Concentration −5.0 Molar): 18%
Percent Growth (COLO 205; COLO 205, Log10 Concentration −6.0 Molar): 51%
Percent Growth (COLO 205; COLO 205, Log10 Concentration −7.0 Molar): 93%
Percent Growth (COLO 205; COLO 205, Log10 Concentration −8.0 Molar): 88%
GI50 (COLO 205; Homo sapiens, COLO 205): 1.05 µM
CC50 (COLO 205; Homo sapiens, COLO 205, read-out: LC50): 5.69 µM
GI50 (UACC-62; Homo sapiens, UACC-62): 0.0451 µM
CC50 (UACC-62; Homo sapiens, UACC-62, read-out: LC50): 11.4 µM
TGI (UACC-62; UACC-62): 8.97E−7 Molar
Percent Growth (UACC-62; UACC-62, Log10 Concentration −4.0 Molar): −94%
Percent Growth (UACC-62; UACC-62, Log10 Concentration −5.0 Molar): −47%
Percent Growth (UACC-62; UACC-62, Log10 Concentration −6.0 Molar): −2%
Percent Growth (UACC-62; UACC-62, Log10 Concentration −7.0 Molar): 35%
Percent Growth (UACC-62; UACC-62, Log10 Concentration −8.0 Molar): 79%
TGI (HL-60(TB); HL-60(TB)): 1.28E−5 Molar
Percent Growth (HL-60(TB); HL-60(TB), Log10 Concentration −4.0 Molar): −78%
Percent Growth (HL-60(TB); HL-60(TB), Log10 Concentration −5.0 Molar): 9%
Percent Growth (HL-60(TB); HL-60(TB), Log10 Concentration −6.0 Molar): 89%
Percent Growth (HL-60(TB); HL-60(TB), Log10 Concentration −7.0 Molar): 85%
Percent Growth (HL-60(TB); HL-60(TB), Log10 Concentration −8.0 Molar): 95%
GI50 (HL-60(TB); Homo sapiens, HL-60): 2.1 µM
CC50 (HL-60(TB); Homo sapiens, HL-60, read-out: LC50): 48.1 µM
TGI (BT-549; BT-549): 1.73E−5 Molar
Percent Growth (BT-549; BT-549, Log10 Concentration −4.0 Molar): −85%
Percent Growth (BT-549; BT-549, Log10 Concentration −5.0 Molar): 28%
Percent Growth (BT-549; BT-549, Log10 Concentration −6.0 Molar): 97%
Percent Growth (BT-549; BT-549, Log10 Concentration −7.0 Molar): 116%
Percent Growth (BT-549; BT-549, Log10 Concentration −8.0 Molar): 110%
GI50 (BT-549; Homo sapiens, BT-549): 4.82 µM
CC50 (BT-549; Homo sapiens, BT-549, read-out: LC50): 488 µM
CC50 (MOLT-4; Homo sapiens, MOLT-4, read-out: LC50): 82.6 µM
TGI (MOLT-4; MOLT-4): 3.82E−5 Molar
Percent Growth (MOLT-4; MOLT-4, Log10 Concentration −4.0 Molar): −62%
Percent Growth (MOLT-4; MOLT-4, Log10 Concentration −5.0 Molar): 87%
Percent Growth (MOLT-4; MOLT-4, Log10 Concentration −6.0 Molar): 109%
Percent Growth (MOLT-4; MOLT-4, Log10 Concentration −7.0 Molar): 102%
Percent Growth (MOLT-4; MOLT-4, Log10 Concentration −8.0 Molar): 114%
GI50 (SF-539; Homo sapiens, SF-539): 10.9 µM
CC50 (SF-539; Homo sapiens, SF-539, read-out: LC50): 86.6 µM
TGI (SF-539; SF-539): 2.70E−5 Molar
Percent Growth (SF-539; SF-539, Log10 Concentration −4.0 Molar): −73%
Percent Growth (SF-539; SF-539, Log10 Concentration −5.0 Molar): 55%
Percent Growth (SF-539; SF-539, Log10 Concentration −6.0 Molar): 104%
Percent Growth (SF-539; SF-539, Log10 Concentration −7.0 Molar): 110%
Percent Growth (SF-539; SF-539, Log10 Concentration −8.0 Molar): 108%
GI50 (OVCAR-3; Homo sapiens, OVCAR-3): 0.569 µM
CC50 (OVCAR-3; Homo sapiens, OVCAR-3, read-out: LC50): 69.1 µM
TGI (OVCAR-3; OVCAR-3): 1.03E−5 Molar
Percent Growth (OVCAR-3; OVCAR-3, Log10 Concentration −4.0 Molar): −60%
Percent Growth (OVCAR-3; OVCAR-3, Log10 Concentration −5.0 Molar): 1%
Percent Growth (OVCAR-3; OVCAR-3, Log10 Concentration −6.0 Molar): 41%
Percent Growth (OVCAR-3; OVCAR-3, Log10 Concentration −7.0 Molar): 77%
Percent Growth (OVCAR-3; OVCAR-3, Log10 Concentration −8.0 Molar): 95%
